Common to all, as to test: growth of human tumour cells (NCI), 48 h
Assay [1] concerns COLO 205 colon.
For assay [2], the system named is HCT-15 colon.
Assay [3] relates to HOP-62 NSCLC.
Assay [4] concerns HOP-92 NSCLC.
In assay [5] the test system is KM12 colon.
In assay [6] the test system is M14 melanoma.
The subject of assay [7] is MALME-3M melanoma.
The subject of assay [8] is MDA-MB-435.
For assay [9], the system named is NCI/ADR-RES ovarian.
Assay [10] concerns SF-268 CNS.
Assay [11] relates to SK-MEL-5 melanoma.
Assay [12] concerns SNB-75 CNS.
The subject of assay [13] is UACC-257 melanoma.
The subject of assay [14] is UACC-62 melanoma.
Assay [15] relates to UO-31 renal.

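Compound exposure: 48 hours, 5 concentrations, 96-well plates. At the TGI there is no net growth.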

On to `Oc1ccc(-c2cc(-c3cc(-c4ccc(O)cc4)no3)on2)cc1`, for which the TGI in [1], in assay [2], in assay [3], in assay [4], in assay [5] and in assay [6] was over 100 µM in each case. Further, the TGI in assay [7], in assay [8], in assay [9], in assay [10], in assay [11] and in assay [12] was over 100 µM in each case. Also, the TGI in [13] was over 31.1 µM; in assay [14], over 100 µM; in [15], over 100 µM.
As to `O=c1[nH]cc(-c2c[nH]c3ccccc23)nc1-c1c[nH]c2ccccc12`, the TGI was 23.2 µM in assay [1]; 23.7 µM in assay [2]; 27.3 µM in assay [3]; 33.3 µM in assay [4]; over 100 µM in assay [5]; 28.1 µM in assay [6]. In addition, the TGI in assay [7] worked out at 24.1 µM; in [8], 14 µM; in assay [9], 49.8 µM; in assay [10], 27.9 µM; in assay [11] it was 26.1 µM; in assay [12], 23.7 µM. The TGI in assay [13] turned out to be 26.9 µM; in assay [14], 23.7 µM; in assay [15], 29.8 µM.
As for `CN(C)c1ccc(C(Cc2ccccc2)C2NC(=S)NC2=O)cc1` (stereo not given), the TGI in [1], in assay [2], in assay [3], in assay [4], in assay [5] and in assay [6] was over 100 µM each time. For the same molecule, the TGI in assay [7], in assay [8], in assay [9], in assay [10], in [11] and in assay [12] was over 100 µM each time. Further, the TGI in assay [13], in [14] and in [15] was over 100 µM each time.
As to `CN1c2ccccc2C(=O)NC12CCN(CCCC(=O)c1ccc(F)cc1)CC2`, the TGI was 30.4 µM in [1]; over 100 µM in assay [2]; over 100 µM in assay [3]; over 100 µM in assay [4]; over 100 µM in [5]; 32.5 µM in [6]. The TGI in assay [7] is 86.5 µM; in assay [8] it was over 100 µM; in [9], over 100 µM; in assay [10] it was 88.9 µM; in assay [11] it was 79.6 µM; in assay [12], over 100 µM. The results for the TGI in [13], in assay [14] and in [15] were 87.6 µM, over 100 µM and over 100 µM, respectively.
As for `CCN(CC)CC1CCCCN1CC(=O)N1c2ccccc2C(=O)Nc2cccnc21` (stereo not given), the TGI in [1] was 64.6 µM; in assay [2], over 100 µM; in assay [3], over 100 µM; in assay [4], over 100 µM; in assay [5], over 100 µM; in assay [6], over 100 µM. The TGI in assay [7] is over 100 µM; in [8], over 100 µM; in assay [9], 67.5 µM; in assay [10], over 100 µM; in [11], over 100 µM; in assay [12] it was over 100 µM. The TGI in assay [13] is 75.2 µM; in assay [14], over 100 µM; in assay [15], 4.96 µM.
In the case of `Cc1ccc(NC(Nc2ccc(C)cc2C)=C(/C=C(\Cl)[N+](=O)[O-])[N+](=O)[O-])c(C)c1`, the TGI in [1] is 4.99 µM; in [2], 11.5 µM; in assay [3], 34.1 µM; in assay [4], 3.99 µM; in assay [5], 26.7 µM; in assay [6], 5.69 µM. Also, the TGI in assay [7] was 7.13 µM; in assay [8] it was 7.98 µM; in assay [9] it was 48.8 µM; in [10], 10.3 µM; in assay [11], 13.4 µM; in assay [12], 16.4 µM. Also, the TGI came out at 13.1 µM in [13], 10 µM in assay [14] and 19.2 µM in [15].

The values are drawn from PubChem BioAssay (NCI).
